Experiments:
Assay in all cases: relative viability (nuclei count vs DMSO), 5 days (fraction); higher = more cells survive
Ispinesib + Palbociclib = compound: Cc1ccc(C(=O)N(CCCN)[C@@H](c2nc3cc(Cl)ccc3c(=O)n2Cc2ccccc2)C(C)C)cc1 [Ispinesib] + CC(=O)c1c(C)c2cnc(Nc3ccc(N4CCNCC4)cn3)nc2n(C2CCCC2)c1=O [Palbociclib] (partner 0.5 µM)
How it was run: (§1)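 Nuclei were stained with Hoechst during a one-step fixation (final 0.05% Triton X-100, 1% formaldehyde, 1 ug/ml Hoechst) carried out 5 days after dosing, then counted on 4× images. The cells, lung cancer lines in 1536-well plates, had been dosed by pin tool the day after seeding with one drug alone or a fixed anchor-drug dose plus five library-drug doses (not always all listed) in √10 steps. Relative viability is the nuclei count in treated wells divided by that in vehicle wells, and each value is the median of duplicate plates.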

Ispinesib + Vorinostat = compound: Cc1ccc(C(=O)N(CCCN)[C@@H](c2nc3cc(Cl)ccc3c(=O)n2Cc2ccccc2)C(C)C)cc1 [Ispinesib] + O=C(CCCCCCC(=O)Nc1ccccc1)NO [Vorinostat] (partner 1 µM)
How it was run: as §1

Ispinesib + AZD7762 = compound: Cc1ccc(C(=O)N(CCCN)[C@@H](c2nc3cc(Cl)ccc3c(=O)n2Cc2ccccc2)C(C)C)cc1 [Ispinesib] + NC(=O)Nc1cc(-c2cccc(F)c2)sc1C(=O)N[C@H]1CCCNC1 [AZD7762] (partner 0.2 µM)
How it was run: as §1

Linsitinib + Navitoclax = compound: C[C@]1(O)C[C@@H](c2nc(-c3ccc4ccc(-c5ccccc5)nc4c3)c3c(N)nccn32)C1 [Linsitinib] + CC1(C)CCC(c2ccc(Cl)cc2)=C(CN2CCN(c3ccc(C(=O)NS(=O)(=O)c4ccc(N[C@H](CCN5CCOCC5)CSc5ccccc5)c(S(=O)(=O)C(F)(F)F)c4)cc3)CC2)C1 [Navitoclax] (partner 0.5 µM)
How it was run: as §1

Cell Line	relative viability (Ispinesib + Palbociclib; first compound 0.001 µM)	relative viability (Ispinesib + Palbociclib; first compound 0.003162 µM)	relative viability (Ispinesib + Palbociclib; first compound 0.01 µM)	relative viability (Ispinesib + Palbociclib; first compound 0.03162 µM)	relative viability (Ispinesib + Palbociclib; first compound 0.1 µM)	relative viability (Ispinesib + Vorinostat; first compound 0.001 µM)	relative viability (Ispinesib + Vorinostat; first compound 0.003162 µM)	relative viability (Ispinesib + Vorinostat; first compound 0.01 µM)	relative viability (Ispinesib + Vorinostat; first compound 0.03162 µM)	relative viability (Ispinesib + Vorinostat; first compound 0.1 µM)	relative viability (Ispinesib + AZD7762; first compound 0.001 µM)	relative viability (Ispinesib + AZD7762; first compound 0.003162 µM)	relative viability (Ispinesib + AZD7762; first compound 0.01 µM)	relative viability (Ispinesib + AZD7762; first compound 0.03162 µM)	relative viability (Ispinesib + AZD7762; first compound 0.1 µM)	relative viability (Linsitinib + Navitoclax; first compound 0.01 µM)	relative viability (Linsitinib + Navitoclax; first compound 0.03162 µM)	relative viability (Linsitinib + Navitoclax; first compound 0.1 µM)	relative viability (Linsitinib + Navitoclax; first compound 0.3162 µM)	relative viability (Linsitinib + Navitoclax; first compound 1 µM)
HCC-15	0.518	0.847	0.899	0.644	0.418	0.861	0.976	0.968	0.852	0.344	1.26	1.33	1.34	0.902	0.154	0.657	0.698	0.693	0.489	0.62
NCI-H838	0.23	0.23	0.262	0.212	0.137	0.738	0.726	0.739	0.625	0.238	1.01	0.804	1.03	0.941	0.714	1.14	1.12	1.21	0.875	0.986
RERF-LC-KJ	1.11	1.03	0.935	0.68	0.583	0.585	0.679	0.553	0.39	0.397	0.88	1.1	1.07	0.701	0.243	0.862	0.813	0.581	0.791	0.558
ChaGo-K-1	0.8	1.01	1.11	0.985	0.845	0.838	0.744	0.827	0.765	0.232	1.01	0.874	0.879	0.903	0.245	1.09	0.793	0.829	0.377	0.939
NCI-H441	0.237	0.25	0.208	0.174	0.136	0.838	0.909	0.91	0.548	0.256	1.41	1.22	1.44	0.64	0.309	0.803	0.795	1.12	0.397	0.439
NCI-H2170	0.402	0.36	0.431	0.282	0.257	0.923	0.77	0.969	0.502	0.199	0.897	0.88	0.909	0.225	0.17	0.615	0.622	0.456	0.543	0.501
PC-14	0.493	0.439	0.134	0.0579	0.152	0.773	0.569	0.343	0.103	0.134	0.44	0.484	0.388	0.142	0.111	0.968	1.01	1.03	0.984	0.944
NCI-H1395	0.721	0.642	0.412	0.444	0.463	0.754	0.871	0.385	0.386	0.421	0.411	0.403	0.356	0.31	0.355	1.14	0.904	1.47	1	1.15
NCI-H1437	0.329	0.319	0.325	0.332	0.13	0.967	0.837	0.922	0.878	0.219	1.16	1.15	1.18	1.13	0.296	1.03	0.994	1.1	1.01	1.02
NCI-H647	0.393	0.327	0.518	0.208	0.0953	0.637	0.57	0.497	0.333	0.141	0.662	0.564	0.451	0.185	0.172	1.24	1.12	1.18		1.05
NCI-H1793	0.358	0.314	0.31	0.312	0.219	0.702	0.881	0.925	0.38	0.318	0.476	0.494	0.352	0.412	0.295	0.374	0.353	0.469	0.322	0.425
NCI-H2087	0.206	0.224	0.262	0.172	0.112	0.963	0.45	0.937	0.995	0.141	1.35	1.37	1.48	1.02	0.558	1.1	1.05	0.861	0.843	0.821
BEN	0.463	0.514	0.478	0.47	0.372	0.538	0.676	0.642	0.478	0.374	0.745	0.85	0.678	0.472	0.347	0.0565	0.0788	0.0565	0.0421	0.0587
NCI-H3122	0.221	0.216	0.216	0.202	0.157	1	1.09	1.07	0.855	0.119	0.996	0.982	1.15	0.835	0.141	1.02	1.05	1.04	1.02	1.08
LCLC-97TM1	0.238	0.343	0.279	0.181	0.119	0.645	0.847	1.04	0.289	0.0855	0.322	0.348	0.326	0.247	0.119	0.39	0.396	0.552	0.264	0.484
EMC-BAC-2	0.509	0.556	0.506	0.432	0.431	0.539	0.745	0.419	0.147	0.365	1.22	1.23	1.34	0.704	0.599	1.16	1.17	1.14	0.996	1.16

From the supplement of paper PMC10307832
